Several values for one entry are separate records, joined by “and”; a condition that tells them apart may be missing. Equal values may be shown once.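 Growth conditions: 96-well plates. Treatment: test compound, 48 hours, 5 concentrations. Analysis: linear interpolation between bracketing concentrations; unreached endpoints set to highest concentration. At the GI50, growth is halved. TGI denotes the concentration required for complete inhibition of growth.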
Tests used:
Test in all cases: DTP human tumour cell line panel, 48 h
[1] = tested on: COLO 205 colon
[2] = tested on: HCT-116 colon
[3] = tested on: HS 578T breast
[4] = tested on: K-562 leukemia
[5] = tested on: KM12 colon
[6] = tested on: OVCAR-5 ovarian
[7] = tested on: SF-268 CNS
[8] = tested on: SF-295 CNS
[9] = tested on: SK-MEL-28 melanoma
[10] = tested on: SNB-19 CNS

Question: Which GI50 [1] does the source give for `Cn1cc(-c2ccc(-c3cn(C)c4ccc(Cl)cc34)s2)c2cc(Cl)ccc21` here?
Answer: > 100 µM

Question: And the TGI [1]?
Answer: > 100 µM

Question: And the GI50 [2]?
Answer: > 100 µM

Question: And the TGI [2]?
Answer: > 100 µM

Question: And the GI50 [3]?
Answer: > 100 µM

Question: And the TGI [3]?
Answer: > 100 µM

Question: And the GI50 [4]?
Answer: > 100 µM

Question: And the TGI [4]?
Answer: > 100 µM

Question: And the GI50 [5]?
Answer: > 100 µM

Question: What about the TGI [5] of the same compound?
Answer: > 100 µM

Question: And the GI50 [6]?
Answer: > 100 µM

Question: And the TGI [6]?
Answer: > 100 µM

Question: What about the GI50 [7] of the same compound?
Answer: > 100 µM

Question: What about the TGI [7] of the same compound?
Answer: > 100 µM

Question: And the GI50 [8]?
Answer: > 100 µM

Question: And the TGI [8]?
Answer: > 100 µM

Question: What about the GI50 [9] of the same compound?
Answer: > 100 µM

Question: What about the TGI [9] of the same compound?
Answer: > 100 µM

Question: What about the GI50 [10] of the same compound?
Answer: > 100 µM

Question: And the TGI [10]?
Answer: > 100 µM

Question: Which GI50 [1] does the source give for `Nc1ccc(-c2ccc(N)cc2I)c(I)c1` here?
Answer: 17 µM

Question: And the TGI [1]?
Answer: 38.1 µM

Question: And the GI50 [2]?
Answer: 15.2 µM

Question: And the TGI [2]?
Answer: 32 µM

Question: And the GI50 [3]?
Answer: 17.1 µM

Question: And the TGI [3]?
Answer: 88.3 µM

Question: And the GI50 [4]?
Answer: 5.89 µM

Question: What about the TGI [4] of the same compound?
Answer: 39.1 µM

Question: And the GI50 [5]?
Answer: 14.5 µM

Question: What about the TGI [5] of the same compound?
Answer: 36.5 µM

Question: What about the GI50 [6] of the same compound?
Answer: 17.5 µM

Question: What about the TGI [6] of the same compound?
Answer: 54.8 µM

Question: And the GI50 [7]?
Answer: 20 µM

Question: And the TGI [7]?
Answer: > 100 µM

Question: And the GI50 [8]?
Answer: 15.5 µM

Question: What about the TGI [8] of the same compound?
Answer: 33.9 µM

Question: And the GI50 [9]?
Answer: 14.1 µM

Question: What about the TGI [9] of the same compound?
Answer: 38.6 µM

Question: What about the GI50 [10] of the same compound?
Answer: 19 µM

Question: What about the TGI [10] of the same compound?
Answer: 77.3 µM

Question: `CC(C)N1C(NNC(=O)c2cnccn2)=NS(=O)(=O)c2ccccc21` was tested. Which GI50 [1] did it give?
Answer: > 100 µM

Question: What about the TGI [1] of the same compound?
Answer: > 100 µM

Question: What about the GI50 [2] of the same compound?
Answer: > 100 µM

Question: And the TGI [2]?
Answer: > 100 µM

Question: What about the GI50 [3] of the same compound?
Answer: > 100 µM

Question: What about the TGI [3] of the same compound?
Answer: > 100 µM

Question: And the GI50 [4]?
Answer: > 100 µM

Question: What about the TGI [4] of the same compound?
Answer: > 100 µM

Question: And the GI50 [5]?
Answer: > 100 µM

Question: What about the TGI [5] of the same compound?
Answer: > 100 µM

Question: And the GI50 [6]?
Answer: > 100 µM

Question: And the TGI [6]?
Answer: > 100 µM

Question: And the GI50 [7]?
Answer: > 100 µM

Question: What about the TGI [7] of the same compound?
Answer: > 100 µM

Question: And the GI50 [8]?
Answer: > 100 µM

Question: And the TGI [8]?
Answer: > 100 µM

Question: And the GI50 [9]?
Answer: > 100 µM

Question: And the TGI [9]?
Answer: > 100 µM

Question: And the GI50 [10]?
Answer: > 100 µM

Question: What about the TGI [10] of the same compound?
Answer: > 100 µM

Question: What does the source list for `FC(F)(F)c1ccc(-c2cnc(Cl)nc2NCc2cc(C(F)(F)F)cc(C(F)(F)F)c2)cc1`?
Answer: GI50 [1]: 1.88 µM; TGI [1]: 3.43 µM; GI50 [2]: 3.32 µM; TGI [2]: > 100 µM; GI50 [3]: 3.03 µM; TGI [3]: > 100 µM; GI50 [4]: 3.77 µM; TGI [4]: > 100 µM; GI50 [5]: 3.06 µM; TGI [5]: > 100 µM; GI50 [6]: 4.52 µM; TGI [6]: > 100 µM; GI50 [7]: 3.86 µM; TGI [7]: > 100 µM; GI50 [8]: 2.66 µM; TGI [8]: > 100 µM; GI50 [9]: 3.93 µM; TGI [9]: > 100 µM; GI50 [10]: 2.44 µM; TGI [10]: > 100 µM

Question: For `COc1cc(C2CC(c3ccc(N(C)C)cc3)=NN2C(C)=O)cc(OC)c1OC` (stereo not given), which GI50 [1] is on record?
Answer: 3.06 µM

Question: What about the TGI [1] of the same compound?
Answer: > 41.4 µM

Question: What about the GI50 [2] of the same compound?
Answer: 1.22 µM

Question: What about the TGI [2] of the same compound?
Answer: > 45.4 µM

Question: What about the GI50 [3] of the same compound?
Answer: 0.441 µM

Question: What about the TGI [3] of the same compound?
Answer: 3.03 µM

Question: What about the GI50 [4] of the same compound?
Answer: 1.74 µM

Question: What about the TGI [4] of the same compound?
Answer: > 100 µM

Question: What about the GI50 [5] of the same compound?
Answer: 0.933 µM

Question: And the TGI [5]?
Answer: > 52.8 µM

Question: And the GI50 [6]?
Answer: > 27.8 µM

Question: What about the TGI [6] of the same compound?
Answer: > 100 µM

Question: And the GI50 [7]?
Answer: 3.69 µM

Question: What about the TGI [7] of the same compound?
Answer: > 100 µM

Question: And the GI50 [8]?
Answer: 0.374 µM

Question: What about the TGI [8] of the same compound?
Answer: > 100 µM

Question: What about the GI50 [9] of the same compound?
Answer: 21 µM

Question: What about the TGI [9] of the same compound?
Answer: > 100 µM

Question: And the TGI [10]?
Answer: > 100 µM

Question: For `CCC(/C=C/c1ccccc1)=N\Nc1ccc(Cl)c(Cl)c1`, which TGI [1] is on record?
Answer: > 100 µM

Question: And the TGI [2]?
Answer: > 100 µM

Question: And the TGI [3]?
Answer: > 100 µM

Question: And the TGI [4]?
Answer: > 100 µM

Question: What about the TGI [5] of the same compound?
Answer: > 100 µM

Question: And the TGI [6]?
Answer: > 100 µM

Question: What about the TGI [7] of the same compound?
Answer: > 100 µM

Question: What about the TGI [8] of the same compound?
Answer: > 100 µM

Question: What about the TGI [9] of the same compound?
Answer: > 100 µM

Question: And the TGI [10]?
Answer: > 100 µM

Question: Which results are given for `CCCOC(=O)CCn1c(SC)nc2[nH]cc(-c3ccccc3)c2c1=O`?
Answer: GI50 [1]: 19.1 µM; TGI [1]: 46.5 µM; GI50 [2]: 15.4 µM; TGI [2]: 41 µM; GI50 [3]: 28.1 µM; TGI [3]: > 100 µM; GI50 [4]: 3.95 µM; TGI [4]: 43.1 µM; GI50 [5]: 18.7 µM; TGI [5]: 53.8 µM; GI50 [6]: > 100 µM; TGI [6]: > 100 µM; GI50 [7]: 14.5 µM; TGI [7]: > 100 µM; GI50 [8]: 11.1 µM; TGI [8]: 52.4 µM; GI50 [9]: 20.3 µM; TGI [9]: 58.8 µM; GI50 [10]: 31.7 µM; TGI [10]: > 100 µM

Question: With `C=C1CCC2C3(C)COC(c4ccccc4Br)OC3CCC2(C)C1C/C=C1/C(=O)OCC1OC(C)=O` (stereo not given) as the compound, how does the GI50 [1] read?
Answer: 1.66 µM

Question: What about the TGI [1] of the same compound?
Answer: 3.2 µM

Question: What about the GI50 [2] of the same compound?
Answer: 0.289 µM

Question: And the TGI [2]?
Answer: 0.751 µM

Question: What about the GI50 [3] of the same compound?
Answer: 1.89 µM

Question: And the TGI [3]?
Answer: 4.65 µM

Question: What about the GI50 [4] of the same compound?
Answer: 0.396 µM

Question: What about the TGI [4] of the same compound?
Answer: 4.4 µM

Question: And the GI50 [5]?
Answer: 1.55 µM

Question: And the TGI [5]?
Answer: 3.12 µM

Question: What about the GI50 [6] of the same compound?
Answer: 1.85 µM

Question: What about the TGI [6] of the same compound?
Answer: 3.28 µM

Question: What about the GI50 [7] of the same compound?
Answer: 1.65 µM

Question: What about the TGI [7] of the same compound?
Answer: 3.01 µM

Question: And the GI50 [8]?
Answer: 1.82 µM

Question: What about the TGI [8] of the same compound?
Answer: 4.57 µM

Question: And the GI50 [9]?
Answer: 1.76 µM

Question: What about the TGI [9] of the same compound?
Answer: 3.15 µM

Question: And the GI50 [10]?
Answer: 2.25 µM

Question: And the TGI [10]?
Answer: 5.85 µM

Question: With `c1ccc(P(CCP(CCP(c2ccccc2)c2ccccc2)c2ccccc2)CCP(c2ccccc2)c2ccccc2)cc1` (stereo not given) as the compound, how does the GI50 [1] read?
Answer: > 10 µM and 2.08 µM

Question: What about the TGI [1] of the same compound?
Answer: > 10 µM

Question: And the TGI [2]?
Answer: > 10 µM

Question: What about the TGI [3] of the same compound?
Answer: > 10 µM

Question: What about the TGI [4] of the same compound?
Answer: > 10 µM

Question: And the GI50 [5]?
Answer: > 10 µM and 1.39 µM

Question: And the TGI [5]?
Answer: > 10 µM

Question: What about the TGI [6] of the same compound?
Answer: > 10 µM

Question: What about the GI50 [7] of the same compound?
Answer: > 10 µM and 3.71 µM

Question: And the TGI [7]?
Answer: > 10 µM

Question: What about the GI50 [8] of the same compound?
Answer: > 10 µM and 3.56 µM

Question: What about the TGI [8] of the same compound?
Answer: > 10 µM

Question: And the GI50 [9]?
Answer: > 10 µM and 2.01 µM

Question: What about the TGI [9] of the same compound?
Answer: > 10 µM

Question: What about the GI50 [10] of the same compound?
Answer: > 10 µM

Question: And the TGI [10]?
Answer: > 10 µM

Question: `Cc1cn2c(/C=N/Nc3ccccn3)c(-c3ccc(Cl)c([N+](=O)[O-])c3)nc2s1` was tested. Which GI50 [1] did it give?
Answer: > 50 µM

Question: What about the TGI [1] of the same compound?
Answer: > 50 µM

Question: What about the GI50 [2] of the same compound?
Answer: 8.56 µM

Question: What about the TGI [2] of the same compound?
Answer: 18.4 µM

Question: And the GI50 [3]?
Answer: 12 µM

Question: And the TGI [3]?
Answer: 39.4 µM

Question: And the GI50 [4]?
Answer: 26.7 µM

Question: What about the TGI [4] of the same compound?
Answer: > 50 µM

Question: What about the GI50 [5] of the same compound?
Answer: 23.1 µM

Question: What about the TGI [5] of the same compound?
Answer: > 50 µM

Question: And the GI50 [6]?
Answer: 11.8 µM

Question: And the TGI [6]?
Answer: 39.5 µM

Question: And the GI50 [7]?
Answer: 11.6 µM

Question: What about the TGI [7] of the same compound?
Answer: 31.7 µM

Question: And the GI50 [8]?
Answer: 23 µM

Question: What about the TGI [8] of the same compound?
Answer: > 50 µM

Question: What about the GI50 [9] of the same compound?
Answer: 26.5 µM

Question: And the TGI [9]?
Answer: > 50 µM

Question: What about the GI50 [10] of the same compound?
Answer: 12.4 µM

Question: What about the TGI [10] of the same compound?
Answer: 32.7 µM

Reference: PubChem BioAssay (NCI)
